{"source": "patent US11059815B2", "about": "“Synthesis of small molecule histone deacetylase 6 degraders, compounds formed thereby, and pharmaceutical compositions containing them” (Wisconsin Alumni Research Foundation, priority 2018, dated 2021)", "target": "T1, HDAC6 (Homo sapiens, UniProt Q9UBN7)", "T1 construct": "endogenous in cells; host or cells: MM1S (ATCC CRL-2974)", "T1 sequence (Q9UBN7 1-1215)": "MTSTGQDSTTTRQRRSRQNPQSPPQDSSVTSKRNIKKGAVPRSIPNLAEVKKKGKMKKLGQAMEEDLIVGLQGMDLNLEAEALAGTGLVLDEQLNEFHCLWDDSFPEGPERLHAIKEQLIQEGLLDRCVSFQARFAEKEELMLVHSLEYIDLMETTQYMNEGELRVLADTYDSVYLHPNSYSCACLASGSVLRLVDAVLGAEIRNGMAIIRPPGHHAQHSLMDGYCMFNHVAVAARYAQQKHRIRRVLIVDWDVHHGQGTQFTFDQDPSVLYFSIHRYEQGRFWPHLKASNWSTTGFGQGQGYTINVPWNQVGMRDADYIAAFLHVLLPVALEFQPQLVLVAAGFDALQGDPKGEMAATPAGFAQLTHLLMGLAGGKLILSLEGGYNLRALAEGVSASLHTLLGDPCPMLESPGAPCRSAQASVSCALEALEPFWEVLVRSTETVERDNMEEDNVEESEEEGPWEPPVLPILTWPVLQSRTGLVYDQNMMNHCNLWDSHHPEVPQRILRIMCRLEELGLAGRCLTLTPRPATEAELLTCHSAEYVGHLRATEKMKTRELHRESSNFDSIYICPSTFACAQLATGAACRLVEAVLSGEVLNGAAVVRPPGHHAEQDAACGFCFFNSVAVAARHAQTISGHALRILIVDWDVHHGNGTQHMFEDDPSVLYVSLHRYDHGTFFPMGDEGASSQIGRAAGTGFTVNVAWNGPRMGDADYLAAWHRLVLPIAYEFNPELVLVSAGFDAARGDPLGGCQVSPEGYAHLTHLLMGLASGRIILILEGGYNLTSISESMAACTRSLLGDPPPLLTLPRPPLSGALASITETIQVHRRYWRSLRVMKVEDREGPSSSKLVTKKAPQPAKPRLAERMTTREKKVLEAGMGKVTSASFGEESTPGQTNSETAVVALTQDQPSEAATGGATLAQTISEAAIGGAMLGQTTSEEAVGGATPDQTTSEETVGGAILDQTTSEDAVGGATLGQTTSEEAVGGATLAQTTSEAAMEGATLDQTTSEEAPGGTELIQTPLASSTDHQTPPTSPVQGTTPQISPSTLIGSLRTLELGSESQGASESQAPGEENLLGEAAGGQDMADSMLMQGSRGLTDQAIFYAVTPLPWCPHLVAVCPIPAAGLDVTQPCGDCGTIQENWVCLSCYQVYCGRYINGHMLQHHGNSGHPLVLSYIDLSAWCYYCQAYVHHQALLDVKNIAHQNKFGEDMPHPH", "assay": "Western blot of HDAC6 in MM1S cells", "assay_type": "cell-based", "details": "for HDAC6 degradation activity of negative controls by western blot: data not shown", "procedure": "FIGS. 10A and 10B are western blot analysis of MM1S cells treated with selected candidates from C4-lined series (FIG. 10A) and C5-lined series (FIG. 10B) for 6 h.\nFIGS. 12A, 12B, and 12C are a series of western blots showing that degrader 12d selectively promotes HDAC6 degradation in MM1S cells.\nFIGS. 13A and 13B are western blot analysis of MM1S cells with pre-treatment of E3 ligase ligand pomalidomide, HDAC6 inhibitor Next-A or NAE inhibitor MLN 4924 (FIG. 13A) or pre-treatment of proteasome inhibitor MG132 or Bortezomib (FIG. 13B) or vehicle (DMSO) for 1 h and it is followed by the treatment of 100 nM 2d or vehicle (DMSO) for 6 h.\nFIG. 16 is a western blot of selected candidate compounds having longer linkers. MM1S cells were treated with 100 nM degraders for 6 hours and analyzed by western blot.\nSee FIG. 10A and FIG. 10B to confirm the ELISA results. Class II HDAC4 was selected for comparison. For selected compounds from C4- or C5-linked series, all of them presented maximal effects at 100 nM and degraded significant amount of HDAC6 at 10 nM. […] The results from Western blot are consistent with the screening results by ELISA.\nTo evaluate the activity and selectivity of 12d, a full dose response experiment was performed with compound concentrations ranging from 0.3 nM to 10 μM in MM1S cells (FIG. 12A) for several HDACs, IKZFs, and Ac-tubulin. […] Degrader 12d reduced HDAC6 protein content at as low as 3 nM and achieved maximal effects around 30 nM. […] See Douglass et al. 2013, supra. The degradation of IKZFs started from 30 nM and was dose-dependent. It is interesting to see the more efficient degradation of HDAC6, which requires the formation of ternary complex, than that of IKZFs, which only requires the formation of binary complex. In addition to the distinct mechanism, the different turnover rates of HDAC6 and IKZFs may also contribute to the observed results. The acetylated tubulin level was also dose-dependent. At higher concentrations (3 μM and 10 μM), tubulin acetylation was not […] in response to recovered HDAC6 expression by “hook effect”. The elevated tubulin acetylation at higher concentrations was likely due to the combination of HDAC6 degradation and HDAC6 inhibition.\nTo probe the efficiency of 12d, MM1S was treated with 100 nM 12d and the change of HDAC6 protein level was monitored by time. The HDAC6 degradation started around 1 h and reached maximal degradation effect at 4 h. The degradation of IKZFs was only observed after 4 h. Meanwhile, HDAC1 was not affected and the acetylation of tubulin was accumulated by time. To study the re-synthesis rate of HDAC6 after degradation, “wash-out” experiments were performed (data not shown). Cells were treated with 100 nM 12d for 6 h and then washed with PBS to remove remaining degraders. HDAC6 expression was monitored for 48 h. […] Selected degraders were also tested in other cell lines and they are effective among all tested cancer cell lines.\nTo support the involvement of ubiquitination-proteasome system for the decrease of HDAC6 protein level, the degrader was co-treated with binding competitors or pathway blockers. […] Moreover, it also confirmed the role of the pomalidomide moiety in modulating IKZFs. […] Additionally, proteasome inhibitor MG132 and Bortezomib were used to block the down-stream proteasome degradation. […] Acetylated tubulin level was suppressed as well. This confirms that HDAC6 degradation is responsible for the acetylation of its substrates rather than inhibition by the “warhead” moiety. To exclude the possible transcriptional impact by degraders, qRT-PCR was used to examine the mRNA level of HDAC6 and related genes (data not shown). […] This is consistent with the hypothesis that the cellular knockdown of HDAC6 is due to direct protein degradation, not by transcriptional downregulation. […]", "key": {"[1]": {"details": "1 h pre-treatment, then 100 nM degrader 6 h, MM1S"}, "[2]": {"details": "12d dose response 0.3 nM to 10 μM, MM1S"}}, "note": "“Also recorded” adds a separate entry of the source."}
{"smiles": "O=C(CCCCCCC(=O)N/N=C/c1ccc(OCCOCCOCCn2cc(CNc3cccc4c3C(=O)N(C3CCC(=O)NC3=O)C4=O)nn2)cc1)NO", "note": "(centres unmarked) [Compound 1]", "values": [{"measurement": "HDAC6 degradation by western blot", "setting": "10 nM, 6 h, MM1S", "value": "degraded much less HDAC6"}]}
{"smiles": "CCCCN(Cc1ccc(C(=O)NO)cc1)C(=O)Nc1ccc(OCCCCCn2cc(CNc3cccc4c3C(=O)N(C3CCC(=O)NC3=O)C4=O)nn2)cc1", "note": "(centres unmarked) [Compound 2]", "values": [{"measurement": "time at which reduction of HDAC6 expression started", "setting": "time-course, MM1S", "value": 30, "unit": "min"}, {"measurement": "time of maximal HDAC6 degradation", "setting": "time-course, MM1S", "value": "around 4 h"}]}
{"smiles": "CCCCN(Cc1ccc(C(=O)NO)cc1)C(=O)Nc1ccc(OCCCCCn2cc(CNc3cccc4c3C(=O)N(C3CCC(=O)NC3=O)C4=O)nn2)cc1", "note": "(centres unmarked) [Compound 12d, 4-((1-butyl-3-(4-((5-(4-(((2-(2,6-dioxopiperidin-3-yl)-1,3-dioxoisoindolin-4-yl)amino)methyl)-1H-1,2,3-triazol-1-yl)pentyl)oxy)phenyl)ureido)methyl)-N-hydroxybenzamide]", "values": [{"measurement": "HDAC6 recovery after wash-out", "setting": "100 nM for 6 h, washed with PBS, monitored within 48 h", "value": "not fully recovered"}, {"measurement": "time at which HDAC6 degradation started", "setting": "100 nM, MM1S", "value": "around 1 h"}, {"measurement": "time of maximal HDAC6 degradation effect", "setting": "100 nM, MM1S", "value": 4, "unit": "h"}, {"measurement": "HDAC6 level on co-treatment with pomalidomide or Next-A", "setting": "[1]", "value": "recovered HDAC6 level"}, {"measurement": "degradation on co-treatment with NAE inhibitor MLN4924", "setting": "[1]", "value": "abolishing the degradation of both HDAC6 and IKZFs"}, {"measurement": "degradation on co-treatment with proteasome inhibitor MG132 or Bortezomib", "setting": "[1]", "value": "no degradation of HDAC6"}, {"measurement": "concentration at which hook effect was observed", "setting": "[2]", "value": "≥ 3", "unit": "µM"}, {"measurement": "concentration of maximal effects on HDAC6", "setting": "[2]", "value": "around 30 nM"}, {"measurement": "lowest concentration reducing HDAC6 protein content", "setting": "[2]", "value": 3, "unit": "nM"}]}
{"smiles": "CCCCN(Cc1ccc(C(=O)OC)cc1)C(=O)Nc1ccc(OCCCCCn2cc(CNc3cccc4c3C(=O)N(C3CCC(=O)NC3=O)C4=O)nn2)cc1", "note": "(centres unmarked) [Compound 13, Methyl 4-((1-butyl-3-(4-((5-(4-(((2-(2,6-dioxopiperidin-3-yl)-1,3-dioxoisoindolin-4-yl)amino)methyl)-1H-1,2,3-triazol-1-yl)pentyl)oxy)phenyl)ureido)methyl)benzoate]", "values": [{"measurement": "HDAC6 degradation activity of negative controls by western blot", "setting": "MM1S", "value": "inactive; also recorded: limited HDAC6 degradation"}]}
{"smiles": "CCCCN(Cc1ccc(C(=O)NO)cc1)C(=O)Nc1ccc(OCCCCCn2cc(CNc3cccc4c3C(=O)N(C3CCC(=O)N(C)C3=O)C4=O)nn2)cc1", "note": "(centres unmarked) [Compound 15, 4-((1-butyl-3-(4-((5-(4-(((2-(1-methyl-2,6-dioxopiperidin-3-yl)-1,3-dioxoisoindolin-4-yl)amino)methyl)-1H-1,2,3-triazol-1-yl)pentyl)oxy)phenyl)ureido)methyl)-N-hydroxybenzamide]", "values": [{"measurement": "HDAC6 degradation activity of negative controls by western blot", "setting": "MM1S", "value": "inactive"}]}
